Measurements published in ChEMBL document CHEMBL3885881, “DrugMatrix”.

Species on record: Rattus norvegicus
Assay: DrugMatrix - Regimen: Daily Repeat
Format: toxicity, organism-based, Sprague-Dawley
Design: regimen Daily Repeat, gender Male, age 6-8 weeks
Settings: in vivo, po, route oral GAVAGE, vehicle 100 % WATER; for ABSOLUTE BASOPHIL / ABSOLUTE EOSINOPHIL / ABSOLUTE LYMPHOCYTE / ABSOLUTE MONOCYTE / ABSOLUTE SEGMENTED NEUTROPHIL / BASOPHIL / EOSINOPHIL / ERYTHROCYTE COUNT / HEMATOCRIT / HEMOGLOBIN / LEUKOCYTE COUNT / LYMPHOCYTE / MEAN CORPUSCULAR HEMOGLOBIN / MEAN CORPUSCULAR HEMOGLOBIN CONCENTRATION / MEAN CORPUSCULAR VOLUME / MONOCYTE / NEUTROPHIL / NUCLEATED RED BLOOD CELLS / PLATELET COUNT: tissue Blood; for ALANINE AMINOTRANSFERASE / ALBUMIN / ALKALINE PHOSPHATASE / ASPARTATE AMINOTRANSFERASE / BLOOD UREA NITROGEN / CARBON DIOXIDE / CHLORIDE / CHOLESTEROL / CREATINE PHOSPHOKINASE / CREATININE / GLUCOSE / LACTATE DEHYDROGENASE / LIPASE / PHOSPHORUS / POTASSIUM / SODIUM / TOTAL BILIRUBIN / TOTAL PROTEIN / URIC ACID: tissue Plasma
[1] = 120 mg/kg, 72 h, dose level Low, time 3 day
[2] = 120 mg/kg, 120 h, dose level Low, time 5 day
[3] = 1200 mg/kg, 72 h, dose level High, time 3 day
[4] = 1200 mg/kg, 120 h, dose level High, time 5 day

Q: What does the source list for `O=C(O)CNCP(=O)(O)O` [GLYPHOSATE]?
A: ABSOLUTE BASOPHIL [1]: 0 CELLS/uL; ABSOLUTE EOSINOPHIL [1]: 153 CELLS/uL; ABSOLUTE LYMPHOCYTE [1]: 11957 CELLS/uL; ABSOLUTE MONOCYTE [1]: 0 CELLS/uL; ABSOLUTE SEGMENTED NEUTROPHIL [1]: 890 CELLS/uL; BASOPHIL [1]: 0%; EOSINOPHIL [1]: 1.33%; ERYTHROCYTE COUNT [1]: 5.56 x10E6/uL; HEMATOCRIT [1]: 35.93%; HEMOGLOBIN [1]: 13.4 G/DL; LEUKOCYTE COUNT [1]: 13 x10E3/uL; LYMPHOCYTE [1]: 92%; MEAN CORPUSCULAR HEMOGLOBIN [1]: 24.1 pg; MEAN CORPUSCULAR HEMOGLOBIN CONCENTRATION [1]: 37.3 G/DL; MEAN CORPUSCULAR VOLUME [1]: 64.57 fL; MONOCYTE [1]: 0%; NEUTROPHIL [1]: 6.67%; NUCLEATED RED BLOOD CELLS [1]: 0 /100WBC; PLATELET COUNT [1]: 1067 x10E3/uL; ALANINE AMINOTRANSFERASE [1]: 56 u/L; ALBUMIN [1]: 4.13 G/DL; ALKALINE PHOSPHATASE [1]: 286.67 u/L; ASPARTATE AMINOTRANSFERASE [1]: 100.67 u/L; BLOOD UREA NITROGEN [1]: 15 mg/dL; CARBON DIOXIDE [1]: 24.67 mmol/L; CHLORIDE [1]: 103.33 MEQ/L; CHOLESTEROL [1]: 75 mg/dL; CREATINE PHOSPHOKINASE [1]: 1135.33 u/L; CREATININE [1]: 0.29 mg/dL; GLUCOSE [1]: 198.67 mg/dL; LACTATE DEHYDROGENASE [1]: 150.67 u/L; LIPASE [1]: 8 u/L; PHOSPHORUS [1]: 14.7 mg/dL; POTASSIUM [1]: 6.43 MEQ/L; SODIUM [1]: 145.93 MEQ/L; TOTAL BILIRUBIN [1]: 0.27 mg/dL; TOTAL PROTEIN [1]: 5.87 G/DL; URIC ACID [1]: 1.73 mg/dL; ABSOLUTE BASOPHIL [2]: 0 CELLS/uL; ABSOLUTE EOSINOPHIL [2]: 327.33 CELLS/uL; ABSOLUTE LYMPHOCYTE [2]: 13510 CELLS/uL; ABSOLUTE MONOCYTE [2]: 0 CELLS/uL; ABSOLUTE SEGMENTED NEUTROPHIL [2]: 1496 CELLS/uL; BASOPHIL [2]: 0%; EOSINOPHIL [2]: 2%; ERYTHROCYTE COUNT [2]: 5.7 x10E6/uL; HEMATOCRIT [2]: 34.73%; HEMOGLOBIN [2]: 13.27 G/DL; LEUKOCYTE COUNT [2]: 15.33 x10E3/uL; LYMPHOCYTE [2]: 88.33%; MEAN CORPUSCULAR HEMOGLOBIN [2]: 23.27 pg; MEAN CORPUSCULAR HEMOGLOBIN CONCENTRATION [2]: 38.23 G/DL; MEAN CORPUSCULAR VOLUME [2]: 60.93 fL; MONOCYTE [2]: 0%; NEUTROPHIL [2]: 9.67%; NUCLEATED RED BLOOD CELLS [2]: 0 /100WBC; PLATELET COUNT [2]: 1299.33 x10E3/uL; ALANINE AMINOTRANSFERASE [2]: 51.33 u/L; ALBUMIN [2]: 4.47 G/DL; ALKALINE PHOSPHATASE [2]: 337.33 u/L; ASPARTATE AMINOTRANSFERASE [2]: 87.33 u/L; BLOOD UREA NITROGEN [2]: 15.67 mg/dL; CARBON DIOXIDE [2]: 25 mmol/L; CHLORIDE [2]: 103.67 MEQ/L; CHOLESTEROL [2]: 64 mg/dL; CREATINE PHOSPHOKINASE [2]: 252 u/L; CREATININE [2]: 0.19 mg/dL; GLUCOSE [2]: 168.33 mg/dL; LACTATE DEHYDROGENASE [2]: 300.67 u/L; LIPASE [2]: 8.67 u/L; PHOSPHORUS [2]: 12.53 mg/dL; POTASSIUM [2]: 6.55 MEQ/L; SODIUM [2]: 145.77 MEQ/L; TOTAL BILIRUBIN [2]: 0.13 mg/dL; TOTAL PROTEIN [2]: 6.1 G/DL; URIC ACID [2]: 1.9 mg/dL; ABSOLUTE BASOPHIL [3]: 0 CELLS/uL; ABSOLUTE EOSINOPHIL [3]: 430 CELLS/uL; ABSOLUTE LYMPHOCYTE [3]: 12770 CELLS/uL; ABSOLUTE MONOCYTE [3]: 0 CELLS/uL; ABSOLUTE SEGMENTED NEUTROPHIL [3]: 3000 CELLS/uL; BASOPHIL [3]: 0%; EOSINOPHIL [3]: 2.67%; ERYTHROCYTE COUNT [3]: 5.53 x10E6/uL; HEMATOCRIT [3]: 35%; HEMOGLOBIN [3]: 13.4 G/DL; LEUKOCYTE COUNT [3]: 16.2 x10E3/uL; LYMPHOCYTE [3]: 79.33%; MEAN CORPUSCULAR HEMOGLOBIN [3]: 24.3 pg; MEAN CORPUSCULAR HEMOGLOBIN CONCENTRATION [3]: 38.3 G/DL; MEAN CORPUSCULAR VOLUME [3]: 63.37 fL; MONOCYTE [3]: 0%; NEUTROPHIL [3]: 18%; NUCLEATED RED BLOOD CELLS [3]: 0 /100WBC; PLATELET COUNT [3]: 1325.33 x10E3/uL; ALANINE AMINOTRANSFERASE [3]: 51.33 u/L; ALBUMIN [3]: 4.17 G/DL; ALKALINE PHOSPHATASE [3]: 418.33 u/L; ASPARTATE AMINOTRANSFERASE [3]: 78.33 u/L; BLOOD UREA NITROGEN [3]: 15.33 mg/dL; CARBON DIOXIDE [3]: 27.33 mmol/L; CHLORIDE [3]: 101 MEQ/L; CHOLESTEROL [3]: 60.33 mg/dL; CREATINE PHOSPHOKINASE [3]: 226.67 u/L; CREATININE [3]: 0.19 mg/dL; GLUCOSE [3]: 167 mg/dL; LACTATE DEHYDROGENASE [3]: 154.67 u/L; LIPASE [3]: 8.67 u/L; PHOSPHORUS [3]: 13.27 mg/dL; POTASSIUM [3]: 6.4 MEQ/L; SODIUM [3]: 145.67 MEQ/L; TOTAL BILIRUBIN [3]: 0.1 mg/dL; TOTAL PROTEIN [3]: 5.83 G/DL; URIC ACID [3]: 1.47 mg/dL; ABSOLUTE BASOPHIL [4]: 0 CELLS/uL; ABSOLUTE EOSINOPHIL [4]: 318.67 CELLS/uL; ABSOLUTE LYMPHOCYTE [4]: 13433.33 CELLS/uL; ABSOLUTE MONOCYTE [4]: 0 CELLS/uL; ABSOLUTE SEGMENTED NEUTROPHIL [4]: 2014.67 CELLS/uL; BASOPHIL [4]: 0%; EOSINOPHIL [4]: 2%; ERYTHROCYTE COUNT [4]: 5.83 x10E6/uL; HEMATOCRIT [4]: 36%; HEMOGLOBIN [4]: 13.47 G/DL; LEUKOCYTE COUNT [4]: 15.77 x10E3/uL; LYMPHOCYTE [4]: 84.67%; MEAN CORPUSCULAR HEMOGLOBIN [4]: 23.1 pg; MEAN CORPUSCULAR HEMOGLOBIN CONCENTRATION [4]: 37.47 G/DL; MEAN CORPUSCULAR VOLUME [4]: 61.7 fL; MONOCYTE [4]: 0%; NEUTROPHIL [4]: 13.33%; NUCLEATED RED BLOOD CELLS [4]: 0 /100WBC; PLATELET COUNT [4]: 1271.67 x10E3/uL; ALANINE AMINOTRANSFERASE [4]: 65.33 u/L; ALBUMIN [4]: 4.43 G/DL; ALKALINE PHOSPHATASE [4]: 391.33 u/L; ASPARTATE AMINOTRANSFERASE [4]: 82.33 u/L; BLOOD UREA NITROGEN [4]: 16.33 mg/dL; CARBON DIOXIDE [4]: 27.33 mmol/L; CHLORIDE [4]: 102.67 MEQ/L; CHOLESTEROL [4]: 68.67 mg/dL; CREATINE PHOSPHOKINASE [4]: 204.33 u/L; CREATININE [4]: 0.15 mg/dL; GLUCOSE [4]: 177 mg/dL; LACTATE DEHYDROGENASE [4]: 87 u/L; LIPASE [4]: 9 u/L; PHOSPHORUS [4]: 12.33 mg/dL; POTASSIUM [4]: 6.56 MEQ/L; SODIUM [4]: 147.4 MEQ/L; TOTAL BILIRUBIN [4]: 0.13 mg/dL; TOTAL PROTEIN [4]: 6.03 G/DL; URIC ACID [4]: 1.9 mg/dL
